Laboratory results reported in patent US9101559B2, “Leukemic cell CNS infiltration controlled by notch-induced chemotaxis” (New York University, priority 2009, dated 2015).

Legend:
[1] = system: activated N1-IC protein; assay: Western blot of activated N1-IC protein in CEM cells after γ-secretase inhibitor treatment; type: cell-based, human; settings: CEM cells (T-ALL cell line), 1 nM, three days
Protocol: (§1) FIGS. 9A-9D show γ-secretase-inhibitor mediated suppression of CCR7 expression. CEM cells (T-ALL cell line) were treated with either Compound E (Comp E) (1 nM) or DBZ (1 nM) for three days. FIG. 9A is a panel of western blots showing the disappearance of the activated N1-IC protein in CEM cells following γ-secretase inhibitor (GSI) treatment. β-actin immunoreactivity is shown as a loading control. […] Error bars define standard deviation from mean.

[2] = system: Hes1; assay: Transcription of Notch target gene Hes1 in CEM cells after GSI treatment; type: cell-based, human; settings: CEM cells (T-ALL cell line), 1 nM, three days
Protocol: as §1
(§2) RNA was isolated using RNeasy Plus Mini Kit (Qiagen, Valencia, Calif.) columns and used to synthesize cDNA with the SuperScript First-Strand Kit (Invitrogen, Carlsbad, Calif.). Real time PCR was performed using iQ SYBR Green Supermix and an iCycler (Bio-Rad, Hercules, Calif.). Relative expression was determined from cycle threshold (CT) values and was normalized using β-actin as an internal control.

[3] = system: Dtx1; assay: Transcription of Notch target gene Dtx1 in CEM cells after GSI treatment; type: cell-based, human; settings: CEM cells (T-ALL cell line), 1 nM, three days
Protocol: as §1, §2

[4] = system: human CCR7; assay: CCR7 expression in T-ALL cell lines after GSI treatment; type: cell-based; settings: for transcription of human CCR7: CEM cells (T-ALL cell line), 1 nM, three days; for CCR7 mRNA and protein expression: T-ALL cell lines, addition of γ-secretase inhibitors
Protocol: as §1, §2
To further correlate Notch 1 activation and CCR7 expression, T-ALL cell lines harboring Notch 1 activating mutations and primary T-ALL samples were analyzed. Strikingly, surface CCR7 was expressed in 80% (4/5) of T-ALL lines (FIG. 8A) and in 73% (8/11) of peripheral blood from primary T-ALL samples (FIG. 8B; #114, #358, and #479). […] To obtain a preliminary estimate of the importance of CCR7 expression in CNS infiltration, two human T-ALL lines were selected (FIG. 8A), one expressing CCR7 (CEM/CCR7^pos) and one deficient in CCR7 expression (DND41/CCR7^neg). Both cell lines were infected using a luciferase-expressing lentivirus. To study disease induction and progression, the cells were transplanted into lymphoid Rag2−/− γc−/− host animals. Transplantation of an identical number of leukemia cells led to distinct survival patterns as host animals which received CEM/CCR7^pos cells succumbed to the leukemic disease earlier that the ones receiving the DND41/CCR7^neg cells (FIG. 3A). Using live animal bioluminescent imaging, a higher tumor load in mice that received the […] cell line was observed (FIG. 3B). Most importantly, the brain and spinal cord of CEM/CCR7^pos-transplanted hosts (but not the DND41/CCR7^neg) were infiltrated by T-ALL cells (FIG. 3C). Further histopathological analysis confirmed the localization of the infiltrating cells in leptomeningeal spaces (FIG. 3D).

SMILES	activated N1-IC protein (western blot) [1]	transcription of Hes1 [2]	transcription of Dtx1 [3]	transcription of human CCR7 [4]	CCR7 mRNA and protein expression [4]
C[C@H](NC(=O)Cc1cc(F)cc(F)c1)C(=O)N[C@H]1N=C(c2ccccc2)c2ccccc2N(C)C1=O [Compound E]	disappearance	efficiently suppressed	efficiently suppressed	suppressed	significant down-regulation
C[C@H](NC(=O)Cc1cc(F)cc(F)c1)C(=O)N[C@@H]1C(=O)N(C)c2ccccc2-c2ccccc21 [DBZ]	disappearance	efficiently suppressed	efficiently suppressed	suppressed	significant down-regulation
